Where two headings read alike, the source gives them in different places.
Key:
[1] = molecular target: T1, dopamine-β-hydroxylase (DBH) (Bos taurus, UniProt P15101); assay: in vitro DBH inhibition (conversion of tyramine to octopamine, spectrophotometric at 330 nm); format: biochemical
T1 sequence (P15101 1-610): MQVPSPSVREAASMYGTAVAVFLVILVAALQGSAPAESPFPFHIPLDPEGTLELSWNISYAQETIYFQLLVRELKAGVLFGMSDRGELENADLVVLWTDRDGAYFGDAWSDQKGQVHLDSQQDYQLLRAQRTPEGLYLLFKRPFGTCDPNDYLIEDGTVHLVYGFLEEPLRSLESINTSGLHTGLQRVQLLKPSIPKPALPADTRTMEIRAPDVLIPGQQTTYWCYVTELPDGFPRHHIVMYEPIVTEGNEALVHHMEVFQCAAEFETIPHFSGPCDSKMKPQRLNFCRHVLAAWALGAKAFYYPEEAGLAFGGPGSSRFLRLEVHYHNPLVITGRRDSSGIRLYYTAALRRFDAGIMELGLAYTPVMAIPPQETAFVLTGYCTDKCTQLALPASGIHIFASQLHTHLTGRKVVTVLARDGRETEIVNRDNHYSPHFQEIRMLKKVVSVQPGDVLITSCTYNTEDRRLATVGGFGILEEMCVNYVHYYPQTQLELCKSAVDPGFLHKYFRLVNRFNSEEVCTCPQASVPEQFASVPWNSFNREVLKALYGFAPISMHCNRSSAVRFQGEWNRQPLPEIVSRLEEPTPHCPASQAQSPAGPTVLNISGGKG
Protocol: Because the compounds of Formulae I and II inhibit DBH activity, they have therapeutic value as diuretic, natriuretic, cardiotonic, antihypertensive and vasodilator agents, as well as antiulcerogenic agents. Listed in Table I are the compounds of the invention and compounds included in the pharmaceutical compositions of the invention and useful in the methods of the invention that were tested for in vitro DBH inhibition by a standard procedure for assaying conversion of tyramine to octopamine in the presence of DBH. J. J. Pisano, et al., Biochem. Biophys. Acta; 43, 566-568 (1960). Octopamine was assayed following sodium periodate oxidation to p-hydroxybenzaldehyde by measuring spectrophotometric absorbance at 330 nm. In Table I, inhibition is given in molar concentration of compound at which DBH activity was halved (IC50). Melting points (mp) are given in °C.

[2] = test system: peripheral dopamine (DA) and norepinephrine (NE) levels; assay: effect in vivo on peripheral dopamine (DA) and norepinephrine (NE) levels; design: species or system spontaneously hypertensive rats; conditions: oral, two doses approx. 18 h apart, sacrificed about 2 h after second dose, fusaric acid 50 mg/kg; for DA / NE: average of groups of five; for DA: control (saline) 0.314; for DA / DA/NE Ratio: * p <.001 for both compounds; for NE: control (saline) 9.98; for DA/NE Ratio: control (saline) 0.0314
Protocol: One of the compounds of the invention was tested for its effect in vivo on peripheral dopamine (DA) and norepinephrine (NE) levels substantially by the procedure of DaPrada and Zurcher, Life Sciences, 19, 1161, (1976). Groups of five spontaneously hypertensive rats were dosed orally, twice, the second dose approximately 18 hours after the first, and were sacrificed about 2 hours after the second dose.

[3] = test system: spontaneously hypertensive rats; assay: mean arterial blood pressure in spontaneously hypertensive rats; format: in vivo; conditions: 50 mg/kg intraperitoneally, monitored for 260 minutes, tail artery cannulae
Protocol: Further, spontaneously hypertensive rats were dosed with a suspension or solution of 4-(3'-fluorobenzyl)-1,2,4-triazole-3-thiol at a dose of 50 mg/kg intraperitoneally, and mean arterial blood pressure was monitored for 260 minutes using indwelling cannulae positioned in the tail arteries.

DBH = conditions: literature, cited from earlier work
[4] = Ehrreich et al., literature; cited from earlier work
[5] = literature; cited from earlier work
[6] = in vitro, tyramine to octopamine conversion, read-out: IC50 (molar concentration of compound at which DBH activity was halved)

Oc1c(F)cc(Cn2cnnc2S)cc1F [4-(3',5'-difluoro-4'-hydroxybenzyl)-1,2,4-triazole-3-thiol]
IC50 [1, 6]: 20 nM

COc1c(F)cc(Cn2cnnc2S)cc1F [4-(3',5'-difluoro-4'-methoxybenzyl)-1,2,4-triazole-3-thiol]
IC50 [1, 6]: 19000 nM

Fc1cc(F)cc(Cn2cnnc2S)c1 [4-(3',5'-difluorobenzyl)-1,2,4-triazole-3-thiol]
IC50 [1, 6]: 1000 nM

Fc1cccc(Cn2cnnc2S)c1 [4-(3'-fluorobenzyl)-1,2,4-triazole-3-thiol]
IC50 [1, 6]: 2700 nM
DA [2]: 0.958 µg/g
NE [2]: 8.46 µg/g
DA/NE Ratio [2]: 0.114
mean arterial blood pressure reduction compared to vehicle-treated controls [3]: statistically significant blood pressure reductions at 60, 140, 160, 200, and 240 minutes

Sc1nncn1Cc1ccccc1 [4-benzyl-1,2,4-triazole-3-thiol]
IC50 [1, 6]: 24000 nM

O=C(O)c1ccc(CCC(Br)CBr)cn1 (stereo not shown) [5-(3,4-dibromobutyl)picolinic acid]
DBH inhibition (in words) (DBH): DBH inhibitors

O=C(O)c1ccc(CCCCCl)cn1 [5-(4-chlorobutyl)picolinic acid]
DBH inhibition (in words) (DBH): inhibit DBH

CN(C)C(=S)SCc1ccc(C(=O)O)nc1 [5-(dimethyldithiocarbamoylmethyl)picolinic acid]
DBH inhibition (in words) (DBH): DBH inhibitors

Nc1ccc(C(=O)O)nc1 [5-aminopicolinic acid]
DBH inhibition (in words) (DBH): inhibit DBH

CCCC(=O)c1ccc(C(=O)O)nc1 [5-butyroylpicolinic acid]
DBH inhibition (in words) (DBH): inhibit DBH

NNc1ccc(C(=O)O)nc1 [5-hydrazinopicolinic acid]
DBH inhibition (in words) (DBH): inhibit DBH

NOCc1ccccc1 [Benzyloxyamine, benzyloxyamine]
DBH inhibition (in words) (DBH): apparently act as competitive inhibitors

CCCCc1ccc(C(N)=O)nc1 [Bupicomide, 5-(n-butyl)picolinamine]
DBH inhibition (in words) (DBH): DBH inhibitor
antihypertensive activity [4]: antihypertensive activity

CCCCc1ccc(C(=O)O)nc1 [Fusaric acid]
IC50 [1]: 800 nM
DA [2]: 0.715 µg/g
NE [2]: 8.19 µg/g
DA/NE Ratio [2]: 0.0875
toxicity [5]: hepatotoxic

NNCc1ccccc1 [benzylhydrazine]
DBH inhibition (in words) (DBH): apparently act as competitive inhibitors

phenylpicolinic acid
DBH inhibitory activity relative to fusaric acid (DBH; Runti et al.): twice the inhibitory activity of fusaric acid
